Reference: patent US20030105165A1, “Gap junctions and EDHF” (priority 2001, published 2003)
Where two headings read alike, the source gives them in different places.

Key:
rabbit arteries = conditions: endothelium-, gap junction- and cAMP-dependent; cited from earlier work
cGMP levels = experiment: Radioimmunoassay of cGMP in iliac artery rings; type: cell-based, rabbit; conditions: in the presence of L-NAME and indomethacin
Protocol: (§1) Radioimmunoassay. Multiple rings from the same artery were incubated in oxygenated Holmans buffer containing L-NAME (300 μM) and indomethacin (10 μM) for 40 min at 37° C. in the presence or absence of 18α-GA (100 μM). Rings were frozen in liquid N2 at time points up to 180 s following addition of ACh or A23187 and stored at −70° C. before extraction of cAMP or cGMP in 6% trichloroacetic acid, followed by neutralization with water saturated diethyl ether and subsequent radioimmunoassay (Amersham UK). PE (1 μM) was added 3 min before the initial control point and control experiments were performed with endothelium-denuded rings. Nucleotide levels were expressed relative to protein content (27).

[1] = system: rabbit iliac artery rings; experiment: EDHF-type relaxation of isolated rabbit iliac artery rings constricted with phenylephrine; type: cell-based; conditions: for EC50: Oryctolagus cuniculus
Protocol: Isolated Ring Preparations. Male New Zealand white rabbits (2-2.5 kg) were sacrificed with sodium pentobarbitone (120 mg/kg; i.v.) and the iliac artery removed and transferred to cold Holman's buffer of the following composition (mM): 120 NaCl, 5 KCl, 2.5 CaCl2, 1.3 NaH2PO4, 25 NaHCO3, 11 glucose, and 10 sucrose. […] Endothelium-intact rings were incubated for 40 min with N^G-nitro-L-arginine methyl ester (L-NAME, 300 μM) and indomethacin (10 μM) and following constriction with phenylephrine (PE) cumulative concentration-relaxation curves to ACh or A23187 were constructed. Some preparations were preincubated for 40 min with either 2′5′-dideoxyadenosine (2′5′-DDA, 200 μM), 3-isobutyl-1-methylxanthine (IBMX, 20 μM), 18α-GA (100 μM), glibenclamide (10 μM), the combination of charybdotoxin (100 nM) and apamin (300 nM), or the combination of charybdotoxin (100 nM), apamin (300 nM) and IBMX (20 μM). Concentration-response curves to ACh and A23187 were also constructed for endothelium-denuded rings in the absence/presence of IBMX (20 μM). In experiments with IBMX the concentration of PE used to induce tone was increased from 1 to 3 μM. All reagents were obtained from Sigma, U.K.
(§2) Statistical Analysis All data are given as mean±SEM, where n denotes the number of animals studied for each data point, and were compared by the Student's t-test for paired or unpaired data as appropriate. P<0.05 was considered as significant. Concentration-response curves were assessed by one-way analysis of variance (ANOVA) followed by the Bonferroni multiple comparisons test.

[2] = system: sandwich preparations of rabbit iliac artery; experiment: 'Sandwich' bioassay preparations of iliac artery (endothelium-intact donor ring, denuded detector strip); type: cell-based
Excerpt: ‘Sandwich’ preparations. Rings of iliac artery 2-3 mm wide were denuded of endothelium, cut into strips and pierced ˜2 mm from each end using a Monoject needle (0.9 mm×40 mm). These strips were introduced into the lumen of rings of endothelium-intact iliac artery 4-5 mm wide and the tissues sutured together. Composite preparations were then mounted in a Mulvany Multi Myograph (Danish Myo Technology) with the pierced denuded strips hooked onto the large vessel mountings. Tension was initially set at ˜0.25 g and readjusted during an equilibrium period of 1 h. The preparations were then incubated for 40 min with L-NAME (300 μM) and indomethacin (10 μM), constricted with PE (1 or 3 μM), and concentration-response curves constructed for ACh in the presence/absence of IBMX (20 μM), or A23187 in the presence/absence of IBMX (20 μM) or 2′5′DDA (200 μM).
as §2

[3] = system: smooth muscle cAMP levels; experiment: Radioimmunoassay of cAMP in iliac artery rings; type: cell-based, rabbit
Protocol: as §1

SMILES | Relaxation of rabbit arteries by EET regioisomers (rabbit arteries) | Effect on cGMP levels (cGMP levels) | EC50 ([1]; read-out: EC50 of A23187 relaxation (control of charybdotoxin/apamin series)) | EC50 ([1]; endothelium-intact rings, L-NAME + indomethacin, control of IBMX / 2′,5′-DDA series, read-out: EC50 of EDHF-type relaxation (control)) | Maximal EDHF-type relaxations, % of PE-induced tone ([1]; approximate, at concentrations ~3 μM, L-NAME 300 μM + indomethacin 10 μM) | Relaxation after endothelial denudation ([1]; endothelium-denuded rings) | Relaxation in endothelium-denuded rings incubated with IBMX, % of PE-induced tone ([1]; endothelium-denuded rings, IBMX 20 μM) | Maximal EDHF-type relaxation, % of PE-induced tone (control) ([1]; endothelium-intact rings, L-NAME 300 μM + indomethacin 10 μM, control of IBMX / 2′,5′-DDA series) | Maximal relaxation to A23187, % of PE-induced tone (control of charybdotoxin/apamin series) ([1]; endothelium-intact rings, L-NAME + indomethacin) | Maximal EDHF-type relaxation in sandwich preparations, % of PE-induced tone ([2]; L-NAME 300 μM + indomethacin 10 μM, no modulator) | EC50 ([2]; Oryctolagus cuniculus, read-out: EC50 of relaxation in sandwich preparations) | Time of peak in cAMP levels ([3]; agonist 3 μM, endothelium-intact rings, L-NAME 300 μM + indomethacin 10 μM) | Change of cAMP level in endothelium-denuded preparations ([3]; endothelium-denuded, basal 3.97±0.49 pmol/mg protein) | Increase (elevation) in smooth muscle cAMP levels ([3]; rings incubated with L-NAME and indomethacin, endothelium-dependent)
CCCCC/C=C\C/C=C\C/C=C\CC1OC1CCCC(=O)O (centres unmarked) [5,6-EET] | evokes relaxations |  |  |  |  |  |  |  |  |  |  |  |  | 
CNc1ccc2oc(C[C@H]3O[C@@]4(CC[C@H]3C)O[C@H]([C@H](C)C(=O)c3ccc[nH]3)[C@H](C)C[C@H]4C)nc2c1C(=O)O [A23187] |  | unaltered | 291 ± 128 nM | 328 ± 123 nM | ~40% | abolished | 21.7±3.6% | 50.2±5.6% | 50.0±5.8% | 52.0±8.0% | 240 ± 40 nM | 40 to 50 s | did not significantly increase | 1.5 fold
